Patent US10406127B2, “Solid oral formulation of fenretinide” (LAURENT PHARMACEUTICALS, priority 2014, dated 2019)
Like-named read-outs stand apart in the source and are kept apart here.

How the values were obtained:
[1] = Solubility in spray-drying solvents (visually assessed); type: physicochemical
Source text: The solubility of Fenretinide/PVP K30 40/60% w/w mixtures was first visually assessed in various ratios of ethanol/dichloromethane. Thereafter, Spray Dryed Intermediates (SDIs) were produced from Fenretinide/PVP K30 40/60% w/w mixture solubilized at 7.5% w/v in ethanol/dichloromethane 90/10 v/v (L215-01009A), 50/50 v/v (L215-01009B) and 10/90 v/v (L215-01009C) systems for a total batch size of 15 g. The solvent was evaporated using Model GA32 Yamato® Lab Spray Dryer with the following operating parameters: 1.2 mm nozzle; about 9-15 g/min feed rate; 1.5 kg/cm^2 atomization air, and 0.35-0.55 m^3/min air flow. The inlet temperature was adjusted according to the solvent system to maintain an outlet temperature between 50-65° C.
Successive amounts of Fenretinide and PVP K30 40/60% w/w were added in 200 ml of dichloromethane until saturation of the solution. At a total solid loading of 20% w/v (40 g), the addition of Fenretinide and PVP K30 was stopped due to the increase of the solution viscosity. The solution was spray dried (lot L215-01010) with the following process parameters: 11-15 g/min feed rate; 75° C. inlet temperature; 45-48° C. outlet temperature; 0.1-0.3 MPa atomization air, and 0.40 m^3/min air flow.

[2] = fenretinide in rats; cited from earlier work

solubility ([1]; dichloromethane 100% with PVP K30, organic solvent or mixture, thermodynamic from solid, solubilised with PVP K30 in a ratio of 40/60 w/w, DCM 100%, read-out: solubility of Fenretinide): > 50 mg/mL | solubility ([1]; ethanol 100% with PVP K30, organic solvent or mixture, thermodynamic from solid, solubilised with PVP K30 in a ratio of 40/60 w/w, ethanol 100%, read-out: solubility of Fenretinide): ~34 mg/mL | solubility ([1]; ethanol/dichloromethane 50/50 v/v with PVP K30, organic solvent or mixture, thermodynamic from solid, solubilised with PVP K30 in a ratio of 40/60 w/w, ethanol/DCM 50/50 v/v, read-out: solubility of Fenretinide): > 50 mg/mL | solubility ([1]; mixture of methanol/dichloromethane (1:1)): very soluble | solubility ([1]; pure dichloromethane): very soluble
SMILES: CC1=C(/C=C/C(C)=C/C=C/C(C)=C/C(=O)Nc2ccc(O)cc2)C(C)(C)CCC1 [Fenretinide, all-trans-N-(4-hydroxyphenyl) retinamide]
elimination half-life, literature data [2]: 7 to 10 h
